Assay results from paper PMC3853718 (Journal of Translational Medicine, 2013).

System: subjects with advanced malignancies
Assay: Phase 1 dose escalation: toxicity, safety and tolerability (DLT, MAD, RP2D, AEs)
[1] = Dose level 0.33 mg/m^2, 1 subject
[2] = Dose level 0.66 mg/m^2, 1 subject
[3] = Dose level 1.32 mg/m^2, 1 subject
[4] = Dose level 2.59 mg/m^2, 4 subjects
[5] = Dose level 3.63 mg/m^2, 8 subjects
[6] = Dose level 5.08 mg/m^2, 3 subjects
[7] = Dose level 7.11 mg/m^2, 7 subjects
[8] = Dose level 10 mg/m^2, 3 subjects
[9] = Dose level 12 mg/m^2, 11 subjects

CCc1cnn2c(NCc3ccc[n+]([O-])c3)cc(N3CCCC[C@H]3CCO)nc12 [dinaciclib]
TEAE: Abdominal distension (14 mg/m^2 (n = 5), Grade 3–4): 0 n (%)
TEAE: Abdominal pain (14 mg/m^2 (n = 5), Grade 3–4): 0 n (%)
TEAE: Anemia (14 mg/m^2 (n = 5), Grade 3–4): 1 (20) n (%)
TEAE: Asthenia (14 mg/m^2 (n = 5), Grade 3–4): 1 (20) n (%)
TEAE: Back pain (14 mg/m^2 (n = 5), Grade 3–4): 0 n (%)
TEAE: Constipation (14 mg/m^2 (n = 5), Grade 3–4): 0 n (%)
TEAE: Cough (14 mg/m^2 (n = 5), Grade 3–4): 0 n (%)
TEAE: Decreased appetite (14 mg/m^2 (n = 5), Grade 3–4): 0 n (%)
TEAE: Dehydration (14 mg/m^2 (n = 5), Grade 3–4): 0 n (%)
TEAE: Diarrhea (14 mg/m^2 (n = 5), Grade 3–4): 0 n (%)
TEAE: Dizziness (14 mg/m^2 (n = 5), Grade 3–4): 1 (20) n (%)
TEAE: Dyspnea (14 mg/m^2 (n = 5), Grade 3–4): 1 (20) n (%)
TEAE: Fatigue (14 mg/m^2 (n = 5), Grade 3–4): 0 n (%)
TEAE: Flatulence (14 mg/m^2 (n = 5), Grade 3–4): 0 n (%)
TEAE: Hyperbilirubinemia (14 mg/m^2 (n = 5), Grade 3–4): 1 (20) n (%)
TEAE: Hyperglycemia (14 mg/m^2 (n = 5), Grade 3–4): 1 (20) n (%)
TEAE: Hyperuricemia (14 mg/m^2 (n = 5), Grade 3–4): 1 (20) n (%)
TEAE: Hypokalemia (14 mg/m^2 (n = 5), Grade 3–4): 0 n (%)
TEAE: Hypophosphatemia (14 mg/m^2 (n = 5), Grade 3–4): 0 n (%)
TEAE: Increased ALP (14 mg/m^2 (n = 5), Grade 3–4): 1 (20) n (%)
TEAE: Increased ALT (14 mg/m^2 (n = 5), Grade 3–4): 0 n (%)
TEAE: Increased AST (14 mg/m^2 (n = 5), Grade 3–4): 0 n (%)
TEAE: Nausea (14 mg/m^2 (n = 5), Grade 3–4): 1 (20) n (%)
TEAE: Neutropenia (14 mg/m^2 (n = 5), Grade 3–4): 2 (40) n (%)
TEAE: Peripheral edema (14 mg/m^2 (n = 5), Grade 3–4): 0 n (%)
TEAE: Pyrexia (14 mg/m^2 (n = 5), Grade 3–4): 0 n (%)
TEAE: Subjects with any AE (14 mg/m^2 (n = 5), Grade 3–4): 5 (100) n (%)
TEAE: Urinary tract infection (14 mg/m^2 (n = 5), Grade 3–4): 0 n (%)
TEAE: Vomiting (14 mg/m^2 (n = 5), Grade 3–4): 1 (20) n (%)
TEAE: Weight decreased (14 mg/m^2 (n = 5), Grade 3–4): 0 n (%)
maximum administered dose (MAD) (2-hour IV infusion on days 1, 8, 15 of a 28-day cycle): 14 mg/m^2
TEAE: Abdominal distension (All doses (N = 48), All grades): 5 (10) n (%)
TEAE: Abdominal pain (All doses (N = 48), All grades): 8 (17) n (%)
TEAE: Anemia (All doses (N = 48), All grades): 19 (40) n (%)
TEAE: Asthenia (All doses (N = 48), All grades): 11 (23) n (%)
TEAE: Back pain (All doses (N = 48), All grades): 11 (23) n (%)
TEAE: Constipation (All doses (N = 48), All grades): 11 (23) n (%)
TEAE: Cough (All doses (N = 48), All grades): 5 (10) n (%)
TEAE: Decreased appetite (All doses (N = 48), All grades): 14 (29) n (%)
TEAE: Diarrhea (All doses (N = 48), All grades): 6 (13) n (%)
TEAE: Dizziness (All doses (N = 48), All grades): 5 (10) n (%)
TEAE: Dyspnea (All doses (N = 48), All grades): 7 (15) n (%)
TEAE: Fatigue (All doses (N = 48), All grades): 14 (29) n (%)
TEAE: Flatulence (All doses (N = 48), All grades): 6 (13) n (%)
TEAE: Hyperglycemia (All doses (N = 48), All grades): 7 (15) n (%)
TEAE: Hyperuricemia (All doses (N = 48), All grades): 5 (10) n (%)
TEAE: Hypokalemia (All doses (N = 48), All grades): 6 (13) n (%)
TEAE: Hypophosphatemia (All doses (N = 48), All grades): 6 (13) n (%)
TEAE: Increased ALP (All doses (N = 48), All grades): 8 (17) n (%)
TEAE: Increased ALT (All doses (N = 48), All grades): 6 (13) n (%)
TEAE: Increased AST (All doses (N = 48), All grades): 8 (17) n (%)
TEAE: Nausea (All doses (N = 48), All grades): 19 (40) n (%)
TEAE: Neutropenia (All doses (N = 48), All grades): 8 (17) n (%)
TEAE: Peripheral edema (All doses (N = 48), All grades): 7 (15) n (%)
TEAE: Pyrexia (All doses (N = 48), All grades): 8 (17) n (%)
TEAE: Subjects with any AE (All doses (N = 48), All grades): 47 (98) n (%)
TEAE: Urinary tract infection (All doses (N = 48), All grades): 12 (25) n (%)
TEAE: Vomiting (All doses (N = 48), All grades): 11 (23) n (%)
TEAE: Weight decreased (All doses (N = 48), All grades): 5 (10) n (%)
TEAE: Abdominal distension (All doses (N = 48), Grade 3–4): 0 n (%)
TEAE: Abdominal pain (All doses (N = 48), Grade 3–4): 2 (4) n (%)
TEAE: Anemia (All doses (N = 48), Grade 3–4): 5 (10) n (%)
TEAE: Asthenia (All doses (N = 48), Grade 3–4): 3 (6) n (%)
TEAE: Back pain (All doses (N = 48), Grade 3–4): 3 (6) n (%)
TEAE: Constipation (All doses (N = 48), Grade 3–4): 0 n (%)
TEAE: Cough (All doses (N = 48), Grade 3–4): 0 n (%)
TEAE: Decreased appetite (All doses (N = 48), Grade 3–4): 0 n (%)
TEAE: Dehydration (All doses (N = 48), Grade 3–4): 0 n (%)
TEAE: Diarrhea (All doses (N = 48), Grade 3–4): 0 n (%)
TEAE: Dyspnea (All doses (N = 48), Grade 3–4): 3 (6) n (%)
TEAE: Fatigue (All doses (N = 48), Grade 3–4): 2 (4) n (%)
TEAE: Flatulence (All doses (N = 48), Grade 3–4): 0 n (%)
TEAE: Hyperbilirubinemia (All doses (N = 48), Grade 3–4): 5 (10) n (%)
TEAE: Hyperglycemia (All doses (N = 48), Grade 3–4): 4 (8) n (%)
TEAE: Hyperuricemia (All doses (N = 48), Grade 3–4): 4 (8) n (%)
TEAE: Hypokalemia (All doses (N = 48), Grade 3–4): 2 (4) n (%)
TEAE: Hypophosphatemia (All doses (N = 48), Grade 3–4): 5 (10) n (%)
TEAE: Increased ALP (All doses (N = 48), Grade 3–4): 2 (4) n (%)
TEAE: Increased AST (All doses (N = 48), Grade 3–4): 2 (4) n (%)
TEAE: Nausea (All doses (N = 48), Grade 3–4): 1 (2) n (%)
TEAE: Neutropenia (All doses (N = 48), Grade 3–4): 5 (10) n (%)
TEAE: Peripheral edema (All doses (N = 48), Grade 3–4): 0 n (%)
TEAE: Pyrexia (All doses (N = 48), Grade 3–4): 0 n (%)
TEAE: Subjects with any AE (All doses (N = 48), Grade 3–4): 29 (60) n (%)
TEAE: Urinary tract infection (All doses (N = 48), Grade 3–4): 0 n (%)
TEAE: Weight decreased (All doses (N = 48), Grade 3–4): 0 n (%)
DLT [1]: None
Subjects with DLT in cycle 1 [1]: 0
DLT [2]: None
Subjects with DLT in cycle 1 [2]: 0
DLT [3]: None
Subjects with DLT in cycle 1 [3]: 0
DLT [4]: None
Subjects with DLT in cycle 1 [4]: 0
DLT [5]: Hypokalemia, hypocalcemia, hypophosphatemia
Subjects with DLT in cycle 1 [5]: 1
DLT [6]: None
Subjects with DLT in cycle 1 [6]: 0
DLT [7]: Deep vein thrombosis
Subjects with DLT in cycle 1 [7]: 1
DLT [8]: None
Subjects with DLT in cycle 1 [8]: 0
DLT [9]: Septic shock
Subjects with DLT in cycle 1 [9]: 1
DLT (Dose level 14 mg/m^2, 5 subjects): Orthostatic hypotension (1), elevated uric acid (1)
